Data taken from ChEMBL document CHEMBL3045073, “Synthesis of -amino carbonyl derivatives of coumarin and benzofuran and evaluation of their biological activity” (Med Chem Res, 2013).
Converted amounts (≈) assume the structure as drawn. The source made the active and inactive calls. No cut-off for these calls is given here.

Tests used:
Pseudomonas aeruginosa [1] = assay: Antibacterial activity against Pseudomonas aeruginosa ATCC 27853 assessed as growth inhibition after 24 hr by serial broth dilution method; type: functional
[2] = system: Radical scavenging activity; assay: Antioxidant activity assessed as DPPH free radical scavenging activity at 100 ug/mL after 10 min UV-Vis spectrophotometric analysis relative to control; type: functional
[3] = system: Chrysosporium keratinophilum; assay: Antifungal activity against Chrysosporium keratinophilum assessed as growth inhibition at 50 mg/mL after 72 hr by agar well diffusion method; type: functional; settings: for zone of inhibition at 50000 µg/mL: read-out: IZ
Aspergillus flavus [4] = assay: Antifungal activity against Aspergillus flavus assessed as growth inhibition at 50 mg/mL after 72 hr by agar well diffusion method; type: functional; settings: for zone of inhibition at 50000 µg/mL: read-out: IZ
Pseudomonas aeruginosa [5] = assay: Antibacterial activity against Pseudomonas aeruginosa ATCC 27853 assessed as growth inhibition at 50 mg/mL after 24 hr by agar well diffusion method; type: functional; settings: for zone of inhibition at 50000 µg/mL: ATCC 27853, 24 h, read-out: IZ
Aspergillus flavus [6] = assay: Antifungal activity against Aspergillus flavus assessed as growth inhibition after 72 hr by serial broth dilution method; type: functional
[7] = system: Chrysosporium keratinophilum; assay: Antifungal activity against Chrysosporium keratinophilum assessed as growth inhibition after 72 hr by serial broth dilution method; type: functional
Candida albicans [8] = assay: Antifungal activity against Candida albicans MTCC227 assessed as growth inhibition after 72 hr by serial broth dilution method
Escherichia coli [9] = assay: Antibacterial activity against Escherichia coli ATCC 25922 assessed as growth inhibition after 24 hr by serial broth dilution method
Candida albicans [10] = assay: Antifungal activity against Candida albicans MTCC227 assessed as growth inhibition at 50 mg/mL after 72 hr by agar well diffusion method; settings: for zone of inhibition at 50000 µg/mL: MTCC227, 72 h, read-out: IZ
Staphylococcus aureus [11] = assay: Antibacterial activity against Staphylococcus aureus ATCC 25923 assessed as growth inhibition after 24 hr by serial broth dilution method
Escherichia coli [12] = assay: Antibacterial activity against Escherichia coli ATCC 25922 assessed as growth inhibition at 50 mg/mL after 24 hr by agar well diffusion method; settings: for zone of inhibition at 50000 µg/mL: ATCC 25922, 24 h, read-out: IZ
Staphylococcus aureus [13] = assay: Antibacterial activity against Staphylococcus aureus ATCC 25923 assessed as growth inhibition at 50 mg/mL after 24 hr by agar well diffusion method; settings: for zone of inhibition at 50000 µg/mL: ATCC 25923, 24 h, read-out: IZ
[14] = Metal chelating activity of the compound assessed as ferrous ion complex formation at 0.5 to 2 mg/mL after 10 min by spectrophotometric analysis relative to EDTA

SMILES | MIC (Pseudomonas aeruginosa [1]; ATCC 27853, 24 h) [µg/mL] | MIC (Aspergillus flavus [6]) | MIC [7] | MIC (Escherichia coli [9]; ATCC 25922, 24 h) [µg/mL] | MIC (Staphylococcus aureus [11]; ATCC 25923, 24 h) [µg/mL] | MIC (Candida albicans [8]; MTCC227, 72 h) [µg/mL] | Activity [2] [%] | zone of inhibition at 50000 µg/mL [3] [mm] | zone of inhibition at 50000 µg/mL (Aspergillus flavus [4]) [mm] | zone of inhibition at 50000 µg/mL (Pseudomonas aeruginosa [5]) [mm] | zone of inhibition at 50000 µg/mL (Escherichia coli [12]) [mm] | zone of inhibition at 50000 µg/mL (Staphylococcus aureus [13]) [mm] | zone of inhibition at 50000 µg/mL (Candida albicans [10]) [mm] | growth inhibition (GI) [3] | further results
COc1ccc(C(CC(=O)c2cc3ccccc3o2)Nc2ccc(C(=O)O)cc2)cc1 (centres undefined) | 500 (≈ 1200 µM) | 500 µg/mL (≈ 1200 µM) | 500 µg/mL (≈ 1200 µM) | 500 (≈ 1200 µM) | 500 (≈ 1200 µM) | – | 14.2 | 2 | 1 | 1 | 3 | 1 | – | – | MIC (Candida albicans [8]): inactive; growth inhibition (GI) (Candida albicans [10]): inactive
O=C(CC(Nc1ccccc1)c1ccccc1)c1cc2ccccc2o1 (centres undefined) | 500 (≈ 1460 µM) | 500 µg/mL (≈ 1460 µM) | 500 µg/mL (≈ 1460 µM) | 500 (≈ 1460 µM) | 500 (≈ 1460 µM) | 500 (≈ 1460 µM) | 28.7 | 1 | 2 | 1 | 1 | 1 | 2 | – | –
Cc1cc(C(C)(C)C)c(O)c(C(C)(C)C)c1 | – | – | – | – | – | – | 90 | – | – | – | – | – | – | – | –
O=C(O)c1ccc(NC(CC(=O)c2cc3ccccc3o2)c2ccc([N+](=O)[O-])cc2)cc1 (centres undefined) | 500 (≈ 1160 µM) | 550 µg/mL (≈ 1280 µM) | 500 µg/mL (≈ 1160 µM) | 500 (≈ 1160 µM) | 400 (≈ 929 µM) | 450 (≈ 1050 µM) | 29.1 | 2 | 3 | 3 | 3 | 3 | 2 | – | –
CN(C)c1ccc(C(CC(=O)c2cc3ccccc3o2)Nc2ccc(C(=O)O)cc2)cc1 (centres undefined) | 40 (≈ 93.4 µM) | 40 µg/mL (≈ 93.4 µM) | 40 µg/mL (≈ 93.4 µM) | 50 (≈ 117 µM) | 60 (≈ 140 µM) | 50 (≈ 117 µM) | 67.2 | 12 | 10 | 10 | 13 | 11 | 19 | – | Activity [14]: Active
O=C(O)c1ccc(NC(CC(=O)c2cc3ccccc3o2)c2ccc(F)cc2)cc1 (centres undefined) | 140 (≈ 347 µM) | 130 µg/mL (≈ 322 µM) | 150 µg/mL (≈ 372 µM) | 300 (≈ 744 µM) | 140 (≈ 347 µM) | 100 (≈ 248 µM) | 36.2 | 12 | 9 | 9 | 5 | 6 | 18 | – | Activity [14]: Active
COc1ccc(C(CC(=O)c2cc3ccccc3o2)Nc2ccccc2)cc1 (centres undefined) | – | inactive | inactive | – | – | – | 27.3 | – | – | – | – | – | – | inactive | MIC (Pseudomonas aeruginosa [1]): inactive; growth inhibition (GI) (Aspergillus flavus [4]): inactive; growth inhibition (GI) (Pseudomonas aeruginosa [5]): inactive; MIC (Candida albicans [8]): inactive; MIC (Escherichia coli [9]): inactive; growth inhibition (GI) (Candida albicans [10]): inactive; MIC (Staphylococcus aureus [11]): inactive; growth inhibition (GI) (Escherichia coli [12]): inactive; growth inhibition (GI) (Staphylococcus aureus [13]): inactive
O=C(O)c1ccc(NC(CC(=O)c2cc3ccccc3oc2=O)c2ccc([N+](=O)[O-])cc2)cc1 (centres undefined) | 430 (≈ 938 µM) | 250 µg/mL (≈ 545 µM) | 350 µg/mL (≈ 763 µM) | 500 (≈ 1090 µM) | 500 (≈ 1090 µM) | 500 (≈ 1090 µM) | 15.3 | 6 | 5 | 6 | 3 | 3 | 4 | – | –
Cc1ccc(C(CC(=O)c2cc3ccccc3o2)Nc2ccc(C(=O)O)cc2)cc1 (centres undefined) | – | inactive | inactive | – | – | – | 54.1 | – | – | – | – | – | – | inactive | MIC (Pseudomonas aeruginosa [1]): inactive; growth inhibition (GI) (Aspergillus flavus [4]): inactive; growth inhibition (GI) (Pseudomonas aeruginosa [5]): inactive; MIC (Candida albicans [8]): inactive; MIC (Escherichia coli [9]): inactive; growth inhibition (GI) (Candida albicans [10]): inactive; MIC (Staphylococcus aureus [11]): inactive; growth inhibition (GI) (Escherichia coli [12]): inactive; growth inhibition (GI) (Staphylococcus aureus [13]): inactive
O=C(CC(Nc1ccccc1)c1ccccc1)c1cc2ccccc2oc1=O (centres undefined) | 350 (≈ 947 µM) | 450 µg/mL (≈ 1220 µM) | 550 µg/mL (≈ 1490 µM) | 500 (≈ 1350 µM) | 500 (≈ 1350 µM) | 300 (≈ 812 µM) | 25.3 | 3 | 4 | 1 | 4 | 5 | 7 | – | –

Now from value to compound, other results behind:

MIC (Pseudomonas aeruginosa [1]; ATCC 27853, 24 h) [µg/mL] | MIC (Aspergillus flavus [6]) | MIC [7] | MIC (Escherichia coli [9]; ATCC 25922, 24 h) [µg/mL] | MIC (Staphylococcus aureus [11]; ATCC 25923, 24 h) [µg/mL] | MIC (Candida albicans [8]; MTCC227, 72 h) [µg/mL] | SMILES | Activity [2] [%] | zone of inhibition at 50000 µg/mL [3] [mm] | zone of inhibition at 50000 µg/mL (Aspergillus flavus [4]) [mm] | zone of inhibition at 50000 µg/mL (Pseudomonas aeruginosa [5]) [mm] | zone of inhibition at 50000 µg/mL (Escherichia coli [12]) [mm] | zone of inhibition at 50000 µg/mL (Staphylococcus aureus [13]) [mm] | zone of inhibition at 50000 µg/mL (Candida albicans [10]) [mm] | growth inhibition (GI) [3] | further results
100 (≈ 232 µM) | 230 µg/mL (≈ 533 µM) | 200 µg/mL (≈ 464 µM) | 100 (≈ 232 µM) | 120 (≈ 278 µM) | 100 (≈ 232 µM) | O=C(O)c1ccc(NC(CC(=O)c2cc3ccccc3oc2=O)c2ccc(F)cc2)cc1 (centres undefined) | 35.2 | 12 | 10 | 12 | 12 | 10 | 18 | – | –
500 (≈ 1170 µM) | 450 µg/mL (≈ 1050 µM) | inactive | 500 (≈ 1170 µM) | 500 (≈ 1170 µM) | 500 (≈ 1170 µM) | Cc1ccc(C(CC(=O)c2cc3ccccc3oc2=O)Nc2ccc(C(=O)O)cc2)cc1 (centres undefined) | 52.5 | – | 1 | 3 | 1 | 3 | 1 | inactive | Activity [14]: Active
– | inactive | inactive | – | – | – | COc1ccc(C(CC(=O)c2cc3ccccc3oc2=O)Nc2ccc(C(=O)O)cc2)cc1 (centres undefined) | 18.1 | – | – | – | – | – | – | inactive | MIC (Pseudomonas aeruginosa [1]): inactive; growth inhibition (GI) (Aspergillus flavus [4]): inactive; growth inhibition (GI) (Pseudomonas aeruginosa [5]): inactive; MIC (Candida albicans [8]): inactive; MIC (Escherichia coli [9]): inactive; growth inhibition (GI) (Candida albicans [10]): inactive; MIC (Staphylococcus aureus [11]): inactive; growth inhibition (GI) (Escherichia coli [12]): inactive; growth inhibition (GI) (Staphylococcus aureus [13]): inactive
40 (≈ 89.3 µM) | 40 µg/mL (≈ 89.3 µM) | 40 µg/mL (≈ 89.3 µM) | 50 (≈ 112 µM) | 50 (≈ 112 µM) | 50 (≈ 112 µM) | O=C(O)c1ccc(NC(CC(=O)c2cc3ccccc3oc2=O)c2ccc(Cl)cc2)cc1 (centres undefined) | 34.7 | 15 | 11 | 13 | 13 | 11 | 19 | – | –
140 (≈ 333 µM) | 40 µg/mL (≈ 95.3 µM) | 40 µg/mL (≈ 95.3 µM) | 120 (≈ 286 µM) | 130 (≈ 310 µM) | 50 (≈ 119 µM) | O=C(O)c1ccc(NC(CC(=O)c2cc3ccccc3o2)c2ccc(Cl)cc2)cc1 (centres undefined) | 31.2 | 13 | 7 | 7 | 9 | 8 | 17 | – | –
400 (≈ 876 µM) | 450 µg/mL (≈ 986 µM) | inactive | 500 (≈ 1100 µM) | 550 (≈ 1200 µM) | 500 (≈ 1100 µM) | CN(C)c1ccc(C(CC(=O)c2cc3ccccc3oc2=O)Nc2ccc(C(=O)O)cc2)cc1 (centres undefined) | 12.3 | – | 1 | 3 | 3 | 2 | 1 | inactive | –
